Measured values from the NIST ThermoML archive (doi:10.1021/je0604380).
Numbers after ± are expanded uncertainties.

Details: Liquid; for Critical pressure: pulse heating; for Critical temperature: pulse-heating method

| Critical pressure [kPa] | Critical temperature [K] | Compound |
| --- | --- | --- |
| 3850 ± 240 | 720 ± 14 | OCCc1ccccc1 [2-phenylethanol] |
| 3460 ± 200 | 732 ± 14 | OCCCc1ccccc1 [3-phenyl-1-propanol] |
| 3070 ± 180 | 746 ± 14 | OCCCCc1ccccc1 [4-phenyl-1-butanol] |
| 5670 ± 340 | 695 ± 14 | Oc1ccccc1 [phenol] |
